Results as given in patent US11160767B2, “4,4′-trans-dihydroxystilbene for use in treating cancer” (The George Washington University, a Congressionally …, priority 2017, dated 2021).

How the values were obtained:
[1] = test system: HCT116 cells, U2OS cells, MDA-231/GFP cells, and PANC-1 cells; assay: Cytotoxicity across the four cancer cell lines (SAR summary); format: cell-based; conditions: range over four cell lines
Description: (§1) In vitro cytotoxicity assays. Cells growing in the Log phase were treated with various compounds at different concentrations (generally 0.137 to 100 μM) for 72 hours at 37° C. SRB assay (Vichai and Kirtikara, 2006) was performed and the absorbance at 510 nm was read with a plate reader. The proliferation rate was calculated according to the Manufacturer's instruction. The IC50 value for each compound was determined from dose-effect relationship using the CompuSyn software (version 1.0.1; CompuSyn, Inc, Paramus, N.J.) (Chou, 2006). Cell proliferating doubling time was monitored over a period of 72 hours.
Based on identification of resveratrol as a lead compound in the drug screening assays, the anti-cancer activity of synthetic resveratrol analogs (FIG. 2) was next investigated and compared to resveratrol using HCT116 cells, U2OS cells, MDA-231/GFP cells, and PANC-1 cells.
The structure activity relationship (SAR) of the derivatives of resveratrol were considered.

[2] = test system: U2OS; assay: In vitro cytotoxicity (SRB assay), U2OS; format: cell-based; conditions: Homo sapiens, 72 hours
Description: (§2) Cell lines and cell culture. HCT116, U205, PANC-1, MDA-231 cell lines were purchased from the American Type Culture Collection (Rockville, Md., US). Cells were cultured in the DMEM medium (Lonza, Basel, Switzerland) containing 10% fetal bovine serum (Gibco, Grand Island, N.Y., US), 100 Units/ml penicillin, 100 Units/mL streptomycin, […] L-glutamine (Gibco, Grand Island, N.Y., US) at 37° C. in a humidified atmosphere with 5% CO2.
as §1, with “Cells growing in the Log phase were treated with various compounds at different concentrations (generally 0.137 to 100 μM) for 72 hours at 37° C.” left out

[3] = test system: HCT116; assay: In vitro cytotoxicity (SRB assay), HCT116; format: cell-based; conditions: Homo sapiens, HCT-116, 72 hours
Description: as §2
as §1, with “Cells growing in the Log phase were treated with various compounds at different concentrations (generally 0.137 to 100 μM) for 72 hours at 37° C.” left out

[4] = test system: PANC-1; assay: In vitro cytotoxicity (SRB assay), PANC-1; format: cell-based; conditions: Homo sapiens, 72 hours
Description: as §2
as §1, with “Cells growing in the Log phase were treated with various compounds at different concentrations (generally 0.137 to 100 μM) for 72 hours at 37° C.” left out

[5] = test system: MDA-231/GFP; assay: In vitro cytotoxicity (SRB assay), MDA-231/GFP; format: cell-based; conditions: Homo sapiens, MDA-MB-231, 72 hours
Description: as §2
as §1, with “Cells growing in the Log phase were treated with various compounds at different concentrations (generally 0.137 to 100 μM) for 72 hours at 37° C.” left out

[6] = test system: And-1; assay: High-throughput screening, HEK-293T-And-1-Luc cells; format: cell-based; conditions: 48 hours
Description: High-throughput drug screening was performed using a HEK-293T-And-1-Luc cell line expressing Luciferase fused to And-1 (FIG. 1A). The level of cellular Luciferase activity was reflective of the level of And-1 protein. […] In the drug screening assays, cells were treated with testing drugs for 48 hours.

[7] = test system: HCT116 cells; assay: dNTP amount in treated cells; format: cell-based, human
Excerpt: The effect of DHS on dNTP synthesis was investigated by measuring the amount of dNTPs in DHS-treated HCT116 cells.

[8] = test system: HCT116 cells; assay: Cell-cycle assay; format: cell-based, human; conditions: 10 μM
Description: A cell-cycle assay was conducted to study whether DHS would affect cell-cycle progression.

[9] = test system: HCT116 xenograft tumor; assay: HCT116 xenograft tumor model; format: in vivo, nude mice; conditions: Day 38; DHS 50 mg/kg i.p. 14 consecutive days; cisplatin 8 mg/kg i.p.
Description: Xenograft mouse models. […] In xenograft studies, HCT116 (3×10^6 cells) and IGROV3/CP2 (5×10^6 cells) suspended in 100 μl of phosphate buffered saline (PBS, pH 7.4) were injected subcutaneously into the lower flank of the mice. Testing compounds were dissolved in DMSO/Tween 80/saline (10:10:80; v/v/v) buffer and were used to treat animals through intraperitoneal (i.p.) injection. […] The body weight of animals was measured throughout the study. Tumor diameters were measured with digital calipers, and the tumor volume in mm^3 was calculated by the formula: Volume=(width)^2×length/2.
HCT116 cells (5×10^6) were injected subcutaneously in nude mice and grown to approximately 100 mm^3 in volume. […] To study the preclinical toxicity of DHS, samples of hearts, livers, spleens, lung, and kidneys were collected on Day 38 and sections were stained for histological examination.

[10] = target: T1, RRM2 (Homo sapiens, UniProt P31350); assay: Thermal shift assay in HCT116 cells, RRM2; format: cell-based
T1 construct: endogenous in cells; host or cells: HCT116
T1 sequence (P31350 1-389): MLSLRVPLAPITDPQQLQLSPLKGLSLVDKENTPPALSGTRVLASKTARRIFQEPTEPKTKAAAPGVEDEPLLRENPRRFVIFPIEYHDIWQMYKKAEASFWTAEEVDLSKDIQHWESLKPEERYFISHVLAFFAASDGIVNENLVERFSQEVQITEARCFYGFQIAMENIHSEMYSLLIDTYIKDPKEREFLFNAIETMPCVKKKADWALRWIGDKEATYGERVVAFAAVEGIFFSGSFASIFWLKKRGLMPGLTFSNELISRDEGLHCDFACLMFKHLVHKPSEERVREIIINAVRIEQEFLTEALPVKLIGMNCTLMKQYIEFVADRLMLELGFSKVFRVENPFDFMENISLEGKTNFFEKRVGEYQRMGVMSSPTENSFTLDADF
Description: (§3) To investigate binding of DHS to RRM1 and RRM2, a thermal shift assay was performed in HCT116 cells treated with DMSO (vehicle), resveratrol, DHS, gemcitabine, or hydroxyurea (Hu). Gemcitabine is known to bind RRM1 (Plunkett et al., 1995 and Chen et al., 2011), and Hu has been reported to bind RRM2 (Thelander et al., 1985). […] DHS stabilized RRM2 protein in a dose responsive manner (5 to 20 μM DHS; FIG. 11A). To rule out nonspecific effects of DHS on RRM2, an in vitro thermal shift assay was conducted. Purified RRM1 and RRM2 were mixed and then incubated with DHS or Hu for 4 hours before performing the assay.

[11] = test system: HCT116 cells; assay: DNA fiber assay; format: cell-based, human; conditions: added 2 hours prior to labeling
Description: Thus, the effect of DHS on DNA replication and cell cycle progression was investigated. Replication fork speeds were examined by DNA fiber assay (FIG. 7A). Briefly, DHS, hydroxyurea (Hu), or Aphidicolin (Aph) was added to HCT116 cells 2 hours prior to labeling of DNA with iododeoxyuridine (IdU) and/or chlorodeoxyuridine (CldU).

[12] = target: T2, RRM1 (Homo sapiens, UniProt P23921); assay: Thermal shift assay in HCT116 cells, RRM1; format: cell-based
T2 construct: endogenous in cells; host or cells: HCT116
T2 sequence (P23921 whole entry): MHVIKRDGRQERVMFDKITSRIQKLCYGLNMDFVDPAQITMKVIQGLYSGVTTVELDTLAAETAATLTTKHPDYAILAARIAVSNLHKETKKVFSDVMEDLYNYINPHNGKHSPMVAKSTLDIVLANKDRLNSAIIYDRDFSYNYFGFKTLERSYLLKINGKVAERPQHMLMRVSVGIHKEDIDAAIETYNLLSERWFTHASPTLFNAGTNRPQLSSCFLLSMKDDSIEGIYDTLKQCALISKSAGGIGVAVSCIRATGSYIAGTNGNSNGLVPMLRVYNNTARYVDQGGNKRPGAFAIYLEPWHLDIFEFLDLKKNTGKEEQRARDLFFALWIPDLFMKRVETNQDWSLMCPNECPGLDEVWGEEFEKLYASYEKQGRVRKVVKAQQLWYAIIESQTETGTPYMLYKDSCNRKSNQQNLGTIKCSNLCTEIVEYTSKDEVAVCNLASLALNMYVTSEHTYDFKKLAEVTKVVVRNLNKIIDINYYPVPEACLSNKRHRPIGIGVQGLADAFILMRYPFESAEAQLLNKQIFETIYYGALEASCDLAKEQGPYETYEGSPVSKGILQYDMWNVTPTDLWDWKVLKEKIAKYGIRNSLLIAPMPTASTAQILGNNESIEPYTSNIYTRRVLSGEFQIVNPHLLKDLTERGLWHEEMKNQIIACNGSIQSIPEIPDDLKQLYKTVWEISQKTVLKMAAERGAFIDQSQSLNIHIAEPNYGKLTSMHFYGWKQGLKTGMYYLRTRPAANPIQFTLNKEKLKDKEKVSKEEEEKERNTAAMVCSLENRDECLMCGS
Description: as §3

| RRM2 levels in thermal shift assay (binding) [10] | RRM1 levels in thermal shift assay (binding) [12] | Compound | IC50 [1] | IC50 [2] | IC50 [3] | IC50 [4] | IC50 [5] | And-1 protein level (luciferase activity) [6] | dNTP synthesis [7] | Effect on cell-cycle progression [8] | Reduction in tumor volume as compared with the vehicle control group [9] | DNA replication stalling [11] |
| --- | --- | --- | --- | --- | --- | --- | --- | --- | --- | --- | --- | --- |
|  |  | Oc1ccc(/C=C/c2ccccc2)cc1 [#3, (E)-4-styrylphenol] | 23.6 to 109 µM | 23.6 ± 3.83 µM | 32.2 ± 5.88 µM | 109 ± 63.7 µM | 45.1 ± 13.9 µM |  |  |  |  |  |
|  |  | Oc1ccc(/C=C/c2cc(O)cc(O)c2)cc1 [Resveratrol, 3,5,4′-trihydroxy-trans-stilbene, reference compound] | 24.5 to 82 µM | 30.2 ± 4.22 µM | 24.5 ± 3.32 µM | 82 ± 24.4 µM | 42.4 ± 4.9 µM | causing down-regulation of And-1 protein | did not | did not change the cell-cycle population |  |  |
|  |  | N.N.[Cl][Pt][Cl] [Cisplatin, reference compound] |  |  |  |  |  |  |  |  | ~50% |  |
| robust levels of RRM2 |  | NC(=O)NO [Hydroxyurea, reference compound] |  | 262 ± 181 µM | 306 ± 61.1 µM | 2400 ± 485 µM | 704 µM |  | did not |  |  | caused DNA replication stalling |
|  |  | Oc1ccc(/C=C/C=C/c2ccc(O)cc2)cc1 [#1, 4,4′-((1E,3E)-buta-1,3-diene-1,4-diyl)diphenol] |  | 1.1 ± 1.05 µM | 6.48 ± 3.98 µM | 308 ± 86.3 µM | 70.7 ± 16.7 µM |  |  |  |  |  |
|  | robust levels of RRM1 | Nc1ccn([C@@H]2O[C@H](CO)[C@@H](O)C2(F)F)c(=O)n1 [Gemcitabine, reference compound] |  | 0.51 ± 0.17 µM | 0.046 ± 0.041 µM | 7.43 ± 5.24 µM | 0.03 ± 0.04 µM |  |  |  |  |  |
|  |  | Oc1ccc(/C=C/c2ccccc2)cc1O [#4, (E)-4-styrylbenzene-1,2-diol] | 13.7 to 57.1 µM | 33.6 ± 28 µM | 50.2 ± 9.72 µM | 57.1 ± 44.7 µM | 13.7 ± 2.98 µM |  |  |  |  |  |
|  |  | Oc1ccc(/C=C/C=C/C=C/c2ccc(O)cc2)cc1 [#2, 4,4′-((1E,3E,5E)-hexa-1,3,5-triene-1,6-dyl)diphenol] |  | 0.37 ± 0.28 µM | 11.7 ± 6.46 µM | 123 ± 93.4 µM | 57.9 ± 15.4 µM |  |  |  |  |  |
|  |  | C[C@@]1(CO)[C@H](O)CC[C@@]2(C)[C@H]1CC[C@H]1C[C@@H]3C[C@@]12CC[C@]3(O)CO [Aph, Aphidicolin, reference compound] |  |  |  |  |  |  |  |  |  | caused DNA replication stalling |
|  |  | Oc1ccc(/C=C/C=C/c2ccccc2)cc1O [#5, 4-((1E,3E)-4-phenylbuta-1,3-dien-1-yl)benzene-1,2-diol] |  | 4.66 ± 2.67 µM | 9.5 ± 3.64 µM | 18.4 ± 8.87 µM | 5.47 ± 4.02 µM |  |  |  |  |  |
